13 compounds from patent US20260193264A1, “BENZOYPARAZINE PYRAZINES AND THEIR USES” (FOGHORN THERAPEUTICS INC., priority 2022, published 2026) can be followed below.

Molecules are shown by their SMILES.

Test [1] has as its target T1, HiBit-BRG1 fusion protein in stable HeLa cell line expressing HiBit-BRG1 and LgBit (Homo sapiens, UniProt P51532).
T1 construct: expressed in transfected cells
Briefly: HiBiT-BRG1 cell-based degradation assay (Nano-Glo HiBiT, 24 h). As to conditions: HeLa HiBit-BRG1/LgBit cells; for Dmax: top dose 30 μM, read-out: BRG1 HiBit Degradation Maximum (%); for DC50: read-out: BRMG1 HiBit Degradation IC50. In short, it runs like this: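 Degradation calculated from NanoBiT luminescence relative to DMSO-treated cells (high) and cells given 2 μM known BRM/BRG1 degrader (low). HeLa cells stably expressing HiBiT-BRG1 plus LgBiT were exposed to compound for 24 h before lytic HiBiT detection.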
(In general: The HiBiT peptide binds its large partner to form an active luciferase.)

Test [2] addresses T2, HiBiT-BRM fusion protein in stable HeLa cell line (Homo sapiens, UniProt P51531).
T2 construct: expressed in transfected cells
Put plainly: HiBiT-BRM cell-based degradation assay (Nano-Glo HiBiT Lytic Detection, 24 h). Further details: DC50: scale not given here. As to conditions: HeLa HiBiT-BRM cells; for DC50: read-out: BRM HiBit Degradation IC50; for BRM HiBit Degradation Maximum (%): top dose 30 μM. The procedure, abridged:
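HiBiT-tagged BRM levels in a stable HeLa line are measured after one day of compound treatment (up to 30 μM final, duplicate 10-point curves) by adding LgBiT lytic reagent and reading bioluminescence; values are expressed relative to vehicle and a 2 μM degrader control.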

T1 sequence (P51532 whole entry, the tested form may be a part): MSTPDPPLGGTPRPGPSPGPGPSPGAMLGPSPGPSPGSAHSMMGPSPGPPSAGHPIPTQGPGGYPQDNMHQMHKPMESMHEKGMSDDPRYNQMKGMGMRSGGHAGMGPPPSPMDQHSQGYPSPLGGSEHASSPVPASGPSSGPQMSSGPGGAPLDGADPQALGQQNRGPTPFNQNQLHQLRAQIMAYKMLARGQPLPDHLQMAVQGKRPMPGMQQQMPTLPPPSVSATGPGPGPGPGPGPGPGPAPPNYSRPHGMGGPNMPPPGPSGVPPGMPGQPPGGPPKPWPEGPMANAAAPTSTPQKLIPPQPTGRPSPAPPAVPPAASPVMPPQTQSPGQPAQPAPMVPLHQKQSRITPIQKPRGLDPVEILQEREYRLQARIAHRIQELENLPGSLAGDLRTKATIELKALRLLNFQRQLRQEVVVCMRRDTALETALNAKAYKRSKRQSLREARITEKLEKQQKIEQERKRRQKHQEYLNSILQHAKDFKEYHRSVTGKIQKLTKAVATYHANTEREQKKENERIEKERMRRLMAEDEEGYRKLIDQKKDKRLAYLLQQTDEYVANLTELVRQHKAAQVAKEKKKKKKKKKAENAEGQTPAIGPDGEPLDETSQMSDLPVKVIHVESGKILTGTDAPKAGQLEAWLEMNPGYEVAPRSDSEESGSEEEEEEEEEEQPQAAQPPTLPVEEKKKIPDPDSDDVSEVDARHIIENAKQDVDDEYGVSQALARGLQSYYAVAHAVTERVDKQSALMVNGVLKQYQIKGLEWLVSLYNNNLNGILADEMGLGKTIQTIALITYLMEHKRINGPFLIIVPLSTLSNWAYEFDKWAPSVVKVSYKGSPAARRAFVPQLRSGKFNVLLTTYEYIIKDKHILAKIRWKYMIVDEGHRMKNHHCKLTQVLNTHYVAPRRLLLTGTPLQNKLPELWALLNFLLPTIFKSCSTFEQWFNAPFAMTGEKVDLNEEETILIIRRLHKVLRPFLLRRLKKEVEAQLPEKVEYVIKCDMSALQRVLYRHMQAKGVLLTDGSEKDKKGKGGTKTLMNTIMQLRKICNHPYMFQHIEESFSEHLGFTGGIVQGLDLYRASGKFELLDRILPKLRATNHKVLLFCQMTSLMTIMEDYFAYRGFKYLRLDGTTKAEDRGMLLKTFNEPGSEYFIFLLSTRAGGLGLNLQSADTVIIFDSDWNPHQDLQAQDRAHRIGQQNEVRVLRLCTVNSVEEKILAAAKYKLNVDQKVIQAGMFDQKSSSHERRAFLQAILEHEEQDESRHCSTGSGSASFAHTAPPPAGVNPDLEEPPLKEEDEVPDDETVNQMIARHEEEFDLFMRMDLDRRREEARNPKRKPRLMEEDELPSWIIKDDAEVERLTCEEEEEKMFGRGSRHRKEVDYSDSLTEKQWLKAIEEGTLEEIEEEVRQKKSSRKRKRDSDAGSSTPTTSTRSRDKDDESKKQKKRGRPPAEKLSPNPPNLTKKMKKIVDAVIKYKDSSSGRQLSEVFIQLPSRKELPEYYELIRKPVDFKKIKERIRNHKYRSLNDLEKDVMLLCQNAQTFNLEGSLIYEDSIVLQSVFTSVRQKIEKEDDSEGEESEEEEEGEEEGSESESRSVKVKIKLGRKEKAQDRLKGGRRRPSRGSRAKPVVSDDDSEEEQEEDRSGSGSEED
T2 sequence (P51531 whole entry, the tested form may be a part): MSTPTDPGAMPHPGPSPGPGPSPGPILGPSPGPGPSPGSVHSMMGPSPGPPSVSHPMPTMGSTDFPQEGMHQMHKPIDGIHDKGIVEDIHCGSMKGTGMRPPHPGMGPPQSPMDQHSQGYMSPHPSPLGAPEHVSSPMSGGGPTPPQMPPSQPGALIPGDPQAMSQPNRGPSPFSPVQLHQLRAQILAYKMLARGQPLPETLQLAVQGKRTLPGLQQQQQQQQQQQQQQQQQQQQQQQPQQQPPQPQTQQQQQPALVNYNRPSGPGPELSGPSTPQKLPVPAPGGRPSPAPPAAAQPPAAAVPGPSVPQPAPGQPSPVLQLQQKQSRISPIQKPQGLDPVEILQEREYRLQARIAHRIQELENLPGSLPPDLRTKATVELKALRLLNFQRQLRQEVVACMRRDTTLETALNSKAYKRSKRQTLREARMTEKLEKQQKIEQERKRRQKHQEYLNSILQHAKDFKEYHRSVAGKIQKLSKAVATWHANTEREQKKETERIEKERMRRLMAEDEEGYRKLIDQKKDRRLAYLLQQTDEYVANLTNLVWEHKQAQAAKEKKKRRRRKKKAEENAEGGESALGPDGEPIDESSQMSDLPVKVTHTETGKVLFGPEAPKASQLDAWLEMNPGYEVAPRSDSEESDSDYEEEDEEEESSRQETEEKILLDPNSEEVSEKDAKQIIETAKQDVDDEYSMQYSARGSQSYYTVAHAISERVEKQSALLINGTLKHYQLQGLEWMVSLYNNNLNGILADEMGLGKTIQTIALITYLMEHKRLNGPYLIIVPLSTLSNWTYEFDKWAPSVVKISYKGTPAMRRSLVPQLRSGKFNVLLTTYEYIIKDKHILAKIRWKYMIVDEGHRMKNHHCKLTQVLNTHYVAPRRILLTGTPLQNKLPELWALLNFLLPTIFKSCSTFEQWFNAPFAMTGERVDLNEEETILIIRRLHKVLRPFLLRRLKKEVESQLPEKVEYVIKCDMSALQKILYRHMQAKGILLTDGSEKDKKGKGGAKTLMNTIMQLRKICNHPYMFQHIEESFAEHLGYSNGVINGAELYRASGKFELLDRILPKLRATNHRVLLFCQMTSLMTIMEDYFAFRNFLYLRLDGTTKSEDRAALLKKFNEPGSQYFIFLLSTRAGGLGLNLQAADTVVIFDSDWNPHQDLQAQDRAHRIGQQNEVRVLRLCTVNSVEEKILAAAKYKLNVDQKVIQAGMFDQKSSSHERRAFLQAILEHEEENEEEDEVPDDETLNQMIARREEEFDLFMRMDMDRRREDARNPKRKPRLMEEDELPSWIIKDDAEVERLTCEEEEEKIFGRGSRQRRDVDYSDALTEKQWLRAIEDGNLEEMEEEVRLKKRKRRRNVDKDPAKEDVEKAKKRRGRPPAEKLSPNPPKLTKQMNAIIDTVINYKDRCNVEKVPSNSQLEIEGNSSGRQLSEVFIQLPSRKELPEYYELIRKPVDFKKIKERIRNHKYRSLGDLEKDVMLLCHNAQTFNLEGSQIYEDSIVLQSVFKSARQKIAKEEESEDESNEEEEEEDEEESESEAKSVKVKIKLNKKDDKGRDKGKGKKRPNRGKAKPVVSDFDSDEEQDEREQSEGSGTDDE

Take `CC(C)C(C(=O)N1C[C@H](O)C[C@H]1C(=O)N[C@@H](C)c1ccccn1)c1cc(N2CC3(CN(c4ccc5cc(-c6ccccc6O)nnc5c4)C3)C2)no1` (stereo partly drawn) [Compound 120, (2S,4R)-4-hydroxy-1-(2-(3-(6-(3-(2-hydroxyphenyl)cinnolin-7-yl)-2,6-diazaspiro[3.3]heptan-2-yl)isoxazol-5-yl)-3-methylbutanoyl)-N-((S)-1-(pyridin-2-yl)ethyl)pyrrolidine-2-carboxamide]: in test [1], the Dmax was less than 50%. In addition, in test [2], the DC50 was greater than 0.01 µM and the “BRM HiBit Degradation Maximum (%)” value was “A (“A” indicates maximum degradation ≥75%)”.
Consider `Cc1cc2cc(-c3ccccc3O)nnc2cc1N1CC2(CN(c3cc([C@H](C(=O)N4C[C@H](O)C[C@H]4C(=O)N[C@@H](C)c4ccc(-c5scnc5C)cc4)C(C)C)on3)C2)C1` [Compound 121, (2S,4R)-4-hydroxy-1-((R)-2-(3-(6-(3-(2-hydroxyphenyl)-6-methylcinnolin-7-yl)-2,6-diazaspiro[3.3]heptan-2-yl)isoxazol-5-yl)-3-methylbutanoyl)-N-((S)-1-(4-(4-methylthiazol-5-yl)phenyl)ethyl)pyrrolidine-2-carboxamide], for which, in test [1], the DC50 was less than 0.01 µM and the Dmax is greater than 75%. Also, in test [2], the DC50 was less than 0.01 µM and the “BRM HiBit Degradation Maximum (%)” value was “A (“A” indicates maximum degradation ≥75%)”.
Consider `Cc1ncsc1-c1ccc([C@H](C)NC(=O)[C@@H]2C[C@@H](O)CN2C(=O)[C@@H](c2cc(N3CCC4(CC3)CC(N(C)c3ccc5cc(-c6ccccc6O)nnc5c3)C4)no2)C(C)C)cc1` [Compound 122, (2S,4R)-4-hydroxy-1-((R)-2-(3-(2-((3-(2-hydroxyphenyl)cinnolin-7-yl)(methyl)amino)-7-azaspiro[3.5]nonan-7-yl)isoxazol-5-yl)-3-methylbutanoyl)-N-((S)-1-(4-(4-methylthiazol-5-yl)phenyl)ethyl)pyrrolidine-2-carboxamide], for which, in test [1], the DC50 is less than 0.01 µM and the Dmax is greater than 75%. For the same compound, in test [2], the DC50 was less than 0.01 µM and the “BRM HiBit Degradation Maximum (%)” value is listed as “A (“A” indicates maximum degradation ≥75%)”.
On to `Cc1ncsc1-c1ccc([C@H](C)NC(=O)[C@@H]2C[C@@H](O)CN2C(=O)[C@@H](c2cc(N3CCN([C@H]4CCN(c5ccc6nnc(-c7ccccc7O)cc6c5)CC4(F)F)CC3)no2)C(C)C)cc1` [Compound 123, (2S,4R)-1-((R)-2-(3-(4-((S)-3,3-difluoro-1-(3-(2-hydroxyphenyl)cinnolin-6-yl)piperidin-4-yl)piperazin-1-yl)isoxazol-5-yl)-3-methylbutanoyl)-4-hydroxy-N-((S)-1-(4-(4-methylthiazol-5-yl)phenyl)ethyl)pyrrolidine-2-carboxamide], for which, in test [1], the DC50 is less than 0.01 µM and the Dmax is greater than 75%. In addition, in test [2], the DC50 was less than 0.01 µM and the “BRM HiBit Degradation Maximum (%)” value is given as “A (“A” indicates maximum degradation ≥75%)”.
`Cc1ncsc1-c1ccc([C@H](C)NC(=O)[C@@H]2C[C@@H](O)CN2C(=O)[C@@H](c2cc(N3CCN([C@@H]4CCN(c5ccc6nnc(-c7ccccc7O)cc6c5)CC4(F)F)CC3)no2)C(C)C)cc1` [Compound 124, (2S,4R)-1-((R)-2-(3-(4-((R)-3,3-difluoro-1-(3-(2-hydroxyphenyl)cinnolin-6-yl)piperidin-4-yl)piperazin-1-yl)isoxazol-5-yl)-3-methylbutanoyl)-4-hydroxy-N-((S)-1-(4-(4-methylthiazol-5-yl)phenyl)ethyl)pyrrolidine-2-carboxamide]: in test [1], the DC50 was less than 0.01 µM and the Dmax is greater than 75%. Moreover, in test [2], the DC50 is less than 0.01 µM and the “BRM HiBit Degradation Maximum (%)” value is “A (“A” indicates maximum degradation ≥75%)”.
As for `Cc1ncsc1-c1ccc([C@H](C)NC(=O)[C@@H]2C[C@@H](O)CN2C(=O)[C@@H](c2cc(N3CC4(CN(c5cc(C6CC6)c6cc(-c7ccccc7O)nnc6c5)C4)C3)no2)C(C)C)cc1` [Compound 125, (2S,4R)-1-((R)-2-(3-(6-(5-cyclopropyl-3-(2-hydroxyphenyl)cinnolin-7-yl)-2,6-diazaspiro[3.3]heptan-2-yl)isoxazol-5-yl)-3-methylbutanoyl)-4-hydroxy-N-((S)-1-(4-(4-methylthiazol-5-yl)phenyl)ethyl)pyrrolidine-2-carboxamide], in test [1], the Dmax was less than 50%. Moreover, in test [2], the DC50 is less than 0.01 µM and the “BRM HiBit Degradation Maximum (%)” value is given as “A (“A” indicates maximum degradation ≥75%)”.
On to `Cc1ncsc1-c1ccc([C@H](C)NC(=O)[C@@H]2C[C@@H](O)CN2C(=O)[C@@H](c2cc(N3CC4(C3)CN(c3cc5nnc(-c6ccccc6O)cc5cc3C3CC3)C4)no2)C(C)C)cc1` [Compound 126, (2S,4R)-1-((R)-2-(3-(6-(6-cyclopropyl-3-(2-hydroxyphenyl)cinnolin-7-yl)-2,6-diazaspiro[3.3]heptan-2-yl)isoxazol-5-yl)-3-methylbutanoyl)-4-hydroxy-N-((S)-1-(4-(4-methylthiazol-5-yl)phenyl)ethyl)pyrrolidine-2-carboxamide], for which, in test [1], the DC50 is less than 0.01 µM and the Dmax was greater than 75%. For the same compound, in test [2], the DC50 was less than 0.01 µM and the “BRM HiBit Degradation Maximum (%)” value was “A (“A” indicates maximum degradation ≥75%)”.
`Cc1ncsc1-c1ccc([C@H](C)NC(=O)[C@@H]2C[C@@H](O)CN2C(=O)[C@@H](c2cc(N3CC4(CN(c5ccc6cc(-c7ccccc7O)nnc6c5)CCO4)C3)no2)C(C)C)cc1` [Compound 127, (2S,4R)-4-hydroxy-1-((R)-2-(3-(8-(3-(2-hydroxyphenyl)cinnolin-7-yl)-5-oxa-2,8-diazaspiro[3.5]nonan-2-yl)isoxazol-5-yl)-3-methylbutanoyl)-N-((S)-1-(4-(4-methylthiazol-5-yl)phenyl)ethyl)pyrrolidine-2-carboxamide]: in test [1], the DC50 was less than 0.01 µM and the Dmax is greater than 75%. In test [2], the DC50 is less than 0.01 µM and the “BRM HiBit Degradation Maximum (%)” value is reported as “A (“A” indicates maximum degradation ≥75%)”.
Regarding `Cc1ncsc1-c1ccc([C@H](C)NC(=O)[C@@H]2C[C@@H](O)CN2C(=O)[C@H](C(C)C)n2cc(-c3ccc4nnc(-c5ccccc5O)cc4c3)nn2)cc1` [Compound 128, (2S,4R)-4-hydroxy-1-((S)-2-(4-(3-(2-hydroxyphenyl)cinnolin-6-yl)-1H-1,2,3-triazol-1-yl)-3-methylbutanoyl)-N—((S)-1-(4-(4-methylthiazol-5-yl)phenyl)ethyl)pyrrolidine-2-carboxamide], in test [1], the DC50 is less than 0.01 µM and the Dmax is greater than 75%. Also, in test [2], the DC50 is less than 0.01 µM and the “BRM HiBit Degradation Maximum (%)” value is listed as “A (“A” indicates maximum degradation ≥75%)”.
In the case of `Cc1ncsc1-c1ccc([C@H](C)NC(=O)[C@@H]2C[C@@H](O)CN2C(=O)[C@@H](c2cc(N3CC4(CN(c5ccc6nnc(-c7ccccc7O)cc6c5)CCO4)C3)no2)C(C)C)cc1` [Compound 129, (2S,4R)-4-hydroxy-1-((R)-2-(3-(8-(3-(2-hydroxyphenyl)cinnolin-6-yl)-5-oxa-2,8-diazaspiro[3.5]nonan-2-yl)isoxazol-5-yl)-3-methylbutanoyl)-N-((S)-1-(4-(4-methylthiazol-5-yl)phenyl)ethyl)pyrrolidine-2-carboxamide], in test [1], the Dmax was less than 50%. In addition, in test [2], the DC50 was less than 0.01 µM and the “BRM HiBit Degradation Maximum (%)” value is listed as “A (“A” indicates maximum degradation ≥75%)”.
Regarding `Cc1ncsc1-c1ccc([C@H](C)NC(=O)[C@@H]2C[C@@H](O)CN2C(=O)[C@@H](c2cc(N3CCC4(CN(c5ccc6cc(-c7ccccc7O)nnc6c5)C4)C3)no2)C(C)C)cc1` [Compound 130, (2S,4R)-4-hydroxy-1-((R)-2-(3-(2-(3-(2-hydroxyphenyl)cinnolin-7-yl)-2,6-diazaspiro[3.4]octan-6-yl)isoxazol-5-yl)-3-methylbutanoyl)-N-((S)-1-(4-(4-methylthiazol-5-yl)phenyl)ethyl)pyrrolidine-2-carboxamide], in test [1], the DC50 was less than 0.01 µM and the Dmax is greater than 75%. Besides, in test [2], the DC50 was less than 0.01 µM and the “BRM HiBit Degradation Maximum (%)” value was “A (“A” indicates maximum degradation ≥75%)”.
As to `Cc1ncsc1-c1ccc([C@H](C)NC(=O)[C@@H]2C[C@@H](O)CN2C(=O)[C@@H](c2cc(N3C[C@H]4CN(c5ccc6cc(-c7ccccc7O)nnc6c5)C[C@H]4C3)no2)C(C)C)cc1` [Compound 131, (2S,4R)-4-hydroxy-1-((R)-2-(3-((3aR,6aS)-5-(3-(2-hydroxyphenyl)cinnolin-7-yl)hexahydropyrrolo[3,4-c]pyrrol-2(1H)-yl)isoxazol-5-yl)-3-methylbutanoyl)-N-((S)-1-(4-(4-methylthiazol-5-yl)phenyl)ethyl)pyrrolidine-2-carboxamide], the Dmax in test [1] is greater than 50%. For the same compound, in test [2], the DC50 was less than 0.01 µM and the “BRM HiBit Degradation Maximum (%)” value is on record as “A (“A” indicates maximum degradation ≥75%)”.
As for `Cc1ncsc1-c1ccc([C@H](C)NC(=O)[C@@H]2C[C@@H](O)CN2C(=O)[C@@H](c2cc(N3CC4(CCN(c5ccc6cc(-c7ccccc7O)nnc6c5)C4)C3)no2)C(C)C)cc1` [Compound 132, (2S,4R)-4-hydroxy-1-((R)-2-(3-(6-(3-(2-hydroxyphenyl)cinnolin-7-yl)-2,6-diazaspiro[3.4]octan-2-yl)isoxazol-5-yl)-3-methylbutanoyl)-N-((S)-1-(4-(4-methylthiazol-5-yl)phenyl)ethyl)pyrrolidine-2-carboxamide], in test [1], the DC50 was less than 0.01 µM and the Dmax is greater than 75%. Further, in test [2], the DC50 was less than 0.01 µM and the “BRM HiBit Degradation Maximum (%)” value is reported as “A (“A” indicates maximum degradation ≥75%)”.
